# According to patent US20060069084A1, “Methods of inhibiting kinases” (priority 2001, published 2006):
# Columns and labels:
# Type in all cases: biochemical
# Details in all cases: inhibit 50% of activity at 50 μM
# JAK3 = molecular target: T1, JAK3 (Homo sapiens, UniProt P52333); test: JAK3 kinase domain capture-based ELISA kinase assay
# T1 construct: The kinase domain of humanJAK3 was amplified from U937mRNA; His tag (from pFastBac HTb vector; nickel chelate purification) (N); made in house; host or cells: baculovirus; virus made in Sf9, large-scale expression in High Five insect cells
# T1 sequence (P52333 822-1111 limits assumed): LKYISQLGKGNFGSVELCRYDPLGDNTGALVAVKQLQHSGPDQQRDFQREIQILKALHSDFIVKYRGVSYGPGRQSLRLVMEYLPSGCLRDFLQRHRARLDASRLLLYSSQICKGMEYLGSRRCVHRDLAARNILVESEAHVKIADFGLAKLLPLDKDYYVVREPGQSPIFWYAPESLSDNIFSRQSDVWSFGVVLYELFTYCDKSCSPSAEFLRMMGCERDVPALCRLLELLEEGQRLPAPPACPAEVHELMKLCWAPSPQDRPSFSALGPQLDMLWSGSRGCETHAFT
# Protocol: (§1) For screening purposes, compounds were diluted in 96 well plates at a concentration of 50 μM or 20 μM. Plates were warmed at 37° C. for 30 minutes before assay.
# The kinase domain of humanJAK3 was amplified from U937mRNA using the polymerase chain reaction with the following primers: […]
# JAK3 PCR products were cloned into the pFastBac HTb expression vector (Gibco) via the Xho I and Kpn I sites. The JAK3 plasmid was then transformed into competent DH10Bac cells (Gibco), and the recombinant baculovirus produced prepared for transfection into Sf9 insect cells.
# (§2) Baculovirus preparations from each of the JAK family members were infected into five litres of High Five cells (Invitrogen) grown in High Five serum free medium (Invitrogen) to a cell density of approximately 1-2×10^6 cells/ml. Cells are infected with virus at a MOI of 0.8-3.0. Cells were harvested and lysed. JAK kinase domains were purified by affinity chromatography on a Probond (Invitrogen) nickel chelate affinity column.
# (§3) The biotinylated substrate biotin-EGPWLEEEEEAYGWMDF-NH2 (SEQ ID NO:9) (final concentration 5 μM) was used as substrate, and tyrosine phosphorylation was quantitated following transfer to an avidin coated ELISA plate using peroxidase-linked anti-phospho-tyrosine antibody PY20.
# (§4) Inhibitors were added to the assays fifteen minutes prior to the addition of ATP. Inhibitors were added in aqueous DMSO, with DMSO concentrations never exceeding 1%.
# TYK2 = molecular target: T2, TYK2 (Homo sapiens, UniProt P29597); test: TYK2 kinase domain capture-based ELISA kinase assay
# T2 construct: The kinase domain of humanTYK2 was amplified from A549 mRNA; His tag (from pBlueBacHis2A vector; nickel chelate purification) (N); made in house; host or cells: baculovirus; virus made in Sf9, large-scale expression in High Five insect cells
# T2 sequence (P29597 897-1176 limits assumed): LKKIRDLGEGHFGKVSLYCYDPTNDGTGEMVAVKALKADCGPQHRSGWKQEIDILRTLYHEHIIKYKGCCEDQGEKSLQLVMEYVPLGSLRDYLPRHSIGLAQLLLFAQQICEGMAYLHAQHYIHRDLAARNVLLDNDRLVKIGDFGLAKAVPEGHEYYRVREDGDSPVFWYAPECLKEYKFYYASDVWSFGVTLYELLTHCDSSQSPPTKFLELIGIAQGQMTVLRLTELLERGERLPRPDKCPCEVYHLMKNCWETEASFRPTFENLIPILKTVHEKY
# Protocol: as §1
# The kinase domain of humanTYK2 was amplified from A549 mRNA using the polymerase chain reaction with the following primers: […]
# TYK2 PCR products were cloned into pBlueBacHis2A (Invitrogen) via the EcoRI site. The recombinant TYK2 baculovirus produced was prepared for transfected into Sf9 insect cells.
# as §2, §3, §4
# JAK2 = molecular target: T3, JAK2 (Homo sapiens, UniProt O60674); test: JAK2 kinase domain capture-based ELISA kinase assay
# T3 construct: The kinase domain of humanJAK2 was amplified from U937mRNA; His tag (from pFastBac HTc vector; nickel chelate purification) (N); made in house; host or cells: baculovirus; virus made in Sf9, large-scale expression in High Five insect cells
# T3 sequence (O60674 849-1124 limits assumed): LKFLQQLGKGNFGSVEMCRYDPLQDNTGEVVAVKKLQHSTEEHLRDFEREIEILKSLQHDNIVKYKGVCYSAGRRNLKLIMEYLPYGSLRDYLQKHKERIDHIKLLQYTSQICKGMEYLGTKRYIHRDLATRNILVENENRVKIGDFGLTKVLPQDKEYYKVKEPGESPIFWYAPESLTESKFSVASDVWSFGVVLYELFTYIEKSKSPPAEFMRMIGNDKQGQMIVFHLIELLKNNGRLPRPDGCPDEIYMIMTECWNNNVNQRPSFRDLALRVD
# Protocol: as §1
# The kinase domain of humanJAK2 was amplified from U937mRNA using the polymerase chain reaction with the following primers: […]
# JAK2 PCR products were cloned into the pFastBac HTc expression vector (Gibco) via the Sal I and Not I sites. The JAK2 plasmid was then transformed into competent DH10Bac cells (Gibco), and the recombinant baculovirus produced prepared for transfection into Sf9 insect cells.
# as §2, §3, §4
# JAK1 = molecular target: T4, JAK1 (Homo sapiens, UniProt P23458); test: JAK1 kinase domain capture-based ELISA kinase assay
# T4 construct: The kinase domain of humanJAK1 was amplified from U937mRNA; His tag (from pFastBac HTb vector; nickel chelate purification) (N); made in house; host or cells: baculovirus; virus made in Sf9, large-scale expression in High Five insect cells
# T4 sequence (P23458 875-1153 limits assumed): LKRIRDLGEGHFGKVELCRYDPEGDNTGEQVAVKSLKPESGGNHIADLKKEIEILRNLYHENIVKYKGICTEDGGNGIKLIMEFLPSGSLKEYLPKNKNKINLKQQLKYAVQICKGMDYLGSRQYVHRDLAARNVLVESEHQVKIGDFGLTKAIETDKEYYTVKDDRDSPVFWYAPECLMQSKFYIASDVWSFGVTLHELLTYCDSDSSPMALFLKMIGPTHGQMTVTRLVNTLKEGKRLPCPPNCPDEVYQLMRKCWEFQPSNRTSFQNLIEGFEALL
# Protocol: as §1
# The kinase domain of humanJAK1 was amplified from U937mRNA using the polymerase chain reaction with the following primers: […]
# JAK1 PCR products were cloned into the pFastBac HTb expression vector (Gibco) via the Xho I and Kpn I sites. The JAK1 plasmid was then transformed into competent DH10Bac cells (Gibco), and the recombinant baculovirus produced prepared for transfection into Sf9 insect cells.
# as §2, §3, §4
IC50 (JAK3; Table 5) [µM],IC50 (TYK2; Table 5) [µM],IC50 (JAK2; Table 5) [µM],IC50 (JAK1; Table 5) [µM],IC50 (JAK3; Table 6) [µM],IC50 (TYK2; Table 6) [µM],IC50 (JAK2; Table 6) [µM],IC50 (JAK1; Table 6) [µM],SMILES
< 50,< 50,< 50,< 50,–,–,–,–,O=C(NCCO)c1cccc(-c2cn3ccnc3c(Nc3ccc(N4CCOCC4)cc3)n2)c1
< 50,< 50,< 50,< 50,–,–,–,–,COc1cccc(OC)c1-c1cn2ccnc2c(Nc2ccc(N3CCOCC3)cc2)n1
< 50,< 50,< 50,< 50,–,–,–,–,Fc1ccccc1-c1cn2ccnc2c(NCc2ccccn2)n1
< 50,< 50,< 50,< 50,–,–,–,–,COc1cc(-c2cn3ccnc3c(NCc3ccccn3)n2)cc(OC)c1OC
< 50,< 50,< 50,< 50,–,–,–,–,CC(=O)Nc1ccc(Nc2nc(-c3ccc(O)cc3)cn3ccnc23)cc1
< 50,< 50,< 50,< 50,–,–,–,–,COc1ccc(Nc2nc(-c3ccc4ccccc4c3)cn3ccnc23)cn1
< 50,< 50,< 50,< 50,–,–,–,–,CC(C)[C@H](CO)Nc1nc(-c2cccc(N)c2)cn2ccnc12
< 50,< 50,< 50,< 50,–,–,–,–,CC(=O)Nc1cccc(-c2cn3ccnc3c(N[C@@H](CO)C(C)C)n2)c1
< 50,< 50,< 50,< 50,–,–,–,–,Cc1ccc(S(=O)(=O)Nc2ccc(Nc3nc(-c4ccccc4)cn4ccnc34)cc2)cc1
< 50,< 50,< 50,< 50,–,–,–,–,CCCC/C=C/c1cn2ccnc2c(Nc2cccc(OCC(=O)N(C)C)c2)n1
< 50,< 50,< 50,< 50,–,–,–,–,COc1cc(-c2cn3ccnc3c(N[C@@H]3CCN(Cc4ccccc4)C3)n2)cc(OC)c1OC
< 50,< 50,< 50,< 50,–,–,–,–,COc1cc(-c2cn3ccnc3c(N3CCCN(C)CC3)n2)cc(OC)c1OC
< 50,< 50,< 50,< 50,–,–,–,–,c1ccc(CNc2nc(Nc3cccc4[nH]ccc34)cn3ccnc23)cc1
< 50,< 50,< 50,< 50,–,–,–,–,c1ccc2c(-c3cn4ccnc4c(Nc4ccc5cn[nH]c5c4)n3)cccc2c1
< 50,< 50,< 50,< 50,–,–,–,–,c1ccc(-c2cc(Nc3ccc4[nH]ccc4c3)c3nccn3c2)cc1
–,–,–,–,> 50,> 50,< 50,> 50,FC(F)(F)c1cc(-c2cn3ccnc3c(NCC3CCOCC3)n2)cc(C(F)(F)F)c1
–,–,–,–,> 50,> 50,> 50,< 50,c1ccc(-c2cn3ccnc3c(NCc3ccncc3)n2)cc1
–,–,–,–,< 50,< 50,< 50,< 50,O=C(O)c1cccc(-c2cn3ccnc3c(Nc3ccc(N4CCOCC4)cc3)n2)c1
–,–,–,–,> 50,> 50,> 50,< 50,O=C(O)c1ccc(-c2cn3ccnc3c(N3CCN(c4ccccn4)CC3)n2)cc1
–,–,–,–,> 50,> 50,< 50,< 50,Cc1ccc(S(=O)(=O)Nc2ccc(Nc3nc(-c4cccc(C(=O)NCCN(C)C)c4)cn4ccnc34)cc2)cc1
–,–,–,–,> 50,< 50,< 50,< 50,CC(=O)Nc1ccc(Nc2nc(-c3ccc4ccccc4c3)cn3ccnc23)cc1
–,–,–,–,> 50,> 50,< 50,> 50,CCN(CCO)c1ccc(Nc2nc(-c3cc(C(F)(F)F)cc(C(F)(F)F)c3)cn3ccnc23)cc1

IC50 (JAK3; Table 5) [µM],IC50 (TYK2; Table 5) [µM],IC50 (JAK2; Table 5) [µM],IC50 (JAK1; Table 5) [µM],IC50 (JAK3; Table 6) [µM],IC50 (TYK2; Table 6) [µM],IC50 (JAK2; Table 6) [µM],IC50 (JAK1; Table 6) [µM],SMILES
–,–,–,–,> 50,> 50,< 50,> 50,Clc1ccccc1-c1cn2ccnc2c(NCc2ccccn2)n1
–,–,–,–,< 50,> 50,< 50,< 50,CCC(CO)Nc1nc(-c2ccco2)cn2ccnc12 (stereo not shown)
–,–,–,–,> 50,> 50,< 50,> 50,O=C(O)c1ccc(-c2cn3ccnc3c(N3CCN(c4ccncc4)CC3)n2)cc1
–,–,–,–,> 50,> 50,< 50,< 50,CCN(CCO)c1ccc(Nc2nc(-c3c(OC)cccc3OC)cn3ccnc23)cc1
–,–,–,–,> 50,< 50,< 50,< 50,Cc1ccc(S(=O)(=O)Nc2ccc(Nc3nc(-c4cccc(N)c4)cn4ccnc34)cc2)cc1
–,–,–,–,< 50,> 50,> 50,> 50,CCCC/C=C/c1cn2ccnc2c(NCCc2cccnc2)n1
–,–,–,–,< 50,> 50,> 50,> 50,CCCC/C=C/c1cn2ccnc2c(NCc2ccncc2)n1
–,–,–,–,< 50,> 50,< 50,> 50,CC(C)[C@H](CO)Nc1nc(-c2ccc(C(=O)O)cc2)cn2ccnc12
–,–,–,–,< 50,< 50,< 50,< 50,O=C(O)c1ccc(-c2cn3ccnc3c(Nc3ccc(Cl)cc3)n2)cc1
–,–,–,–,< 50,< 50,< 50,< 50,CC(=O)Nc1ccc(Nc2nc(-c3ccccc3F)cn3ccnc23)cc1
–,–,–,–,> 50,< 50,< 50,< 50,c1ccc(Nc2nc(-c3ccc4c(c3)OCO4)cn3ccnc23)cc1
–,–,–,–,> 50,< 50,> 50,< 50,c1cn2cc(-c3ccc4c(c3)OCO4)nc(NC3CC3)c2n1
–,–,–,–,> 50,> 50,< 50,< 50,Oc1ccc(-c2cn3ccnc3c(Nc3ccccc3)n2)cc1
–,–,–,–,> 50,> 50,> 50,< 50,CN1CCN(c2nc(-c3cccnc3)cn3ccnc23)CC1
–,–,–,–,< 50,< 50,< 50,< 50,CC(=O)Nc1cccc(-c2cn3ccnc3c(Nc3ccccc3)n2)c1
–,–,–,–,> 50,> 50,> 50,< 50,COc1cc(-c2cn3ccnc3c(NCC3CC3)n2)ccc1O
–,–,–,–,< 50,< 50,< 50,< 50,CC(=O)c1ccc(-c2cn3ccnc3c(Nc3ccccc3)n2)s1
–,–,–,–,< 50,< 50,< 50,< 50,c1ccc(Nc2nc(-c3cccnc3)cn3ccnc23)cc1
–,–,–,–,> 50,< 50,< 50,< 50,Oc1cccc(-c2cn3ccnc3c(NC3CC3)n2)c1
–,–,–,–,< 50,> 50,< 50,< 50,CCNc1nc(-c2cccc(O)c2)cn2ccnc12
–,–,–,–,< 50,> 50,< 50,< 50,COc1cc(-c2cn3ccnc3c(NC3CC3)n2)ccc1O
